Assay results: US11214803B2, “Modulators of YAP1 expression” (Ionis Pharmaceuticals, Inc., priority 2019, dated 2022)
Strand notation (5' to 3'): a small letter for the sugar, then the base; units joined by * are phosphorothioate-linked, units joined directly phosphodiester-linked; [ ] holds rarer units or linkages, { } end groups; capitals alone tell only the bases. k = constrained ethyl (cEt); [5mC] = 5-methylcytosine; d = 2'-deoxy (DNA)

System: Yap1 mRNA
Test: Antisense inhibition of human Yap1 in A-431 cells by cEt gapmers, single dose (Example 2, RTS4814)
Format: cell-based
Procedure, shortened: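 Yap1 mRNA levels, by real-time RT-PCR (RTS4814) and corrected for total RNA via RIBOGREEN, are given as percent of untreated cells. Gapmers (16-mer, cEt wings, phosphorothioate, 5-methylC) were delivered without transfection at 2,000 nM to A-431 cells for about 48 hours.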

[1] = Yap1 mRNA as percent of untreated control, A-431 cells, 3-10-3 cEt gapmers targeting SEQ ID NO.: 1, and 2, Table 30
[2] = Table 24, Yap1 mRNA as percent of untreated control, 3-10-3 cEt gapmers targeting SEQ ID NO.: 1, and 2
[3] = Table 5, A-431 cells, 5,000 cells per well, free uptake, 2,000 nM modified oligonucleotide, approx. 48 hours, RTS4814, normalized to RIBOGREEN, Yap1 mRNA relative to untreated control cells
[4] = Table 20, Yap1 mRNA, percent of untreated control, 3-10-3 cEt gapmers targeting SEQ ID NO.: 1 and 2
[5] = Table 23, Yap1 mRNA as percent of untreated control, 3-10-3 cEt gapmers, single dose
[6] = A-431 cells, 5,000 cells per well, free uptake, 2,000 nM modified oligonucleotide, approx. 48 hours, RTS4814, normalized to RIBOGREEN, Table 4, asterisk (*) = targets amplicon region of primer probe set
[7] = Table 21, Yap1 mRNA, percent of untreated control, 3-10-3 cEt gapmers targeting SEQ ID NO.: 1 and 2
[8] = Table 18, A-431 cells, 5,000 cells per well, free uptake, 2,000 nM modified oligonucleotide, approx. 48 hours, RTS4814, normalized to RIBOGREEN, Yap1 mRNA as percent of untreated control
[9] = Table 33, Yap1 mRNA, percent of untreated control, 3-10-3 cEt gapmers targeting SEQ ID NO.: 1, and 2
[10] = Table 25, Yap1 mRNA as percent of untreated control, 3-10-3 cEt gapmers targeting SEQ ID NO.: 1, and 2
[11] = Table 22, Yap1 mRNA as percent of untreated control, 3-10-3 cEt gapmers, single dose

1076528 (kT*kT*kA*dT*dA*dA*dT*dG*dG*dG*dA*dG*dG*kA*kT*kT; antisense) [compound 1076528]
YAP1 (% UTC) [1]: 86 % UTC

1074314 (antisense kA*kT*kT*dG*dA*dT*dA*dT*dT*d[5mC]*d[5mC]*dG*d[5mC]*kA*kT*kT) [Compound 1074314]
YAP1 (% UTC) [2]: 12 % UTC

716371 (kT*kG*kG*dA*dG*dT*d[5mC]*dA*dG*dG*dG*d[5mC]*dT*k[5mC]*k[5mC]*kT; antisense) [Compound 716371]
YAP1 (% UTC) [3]: 115 % UTC

1076230 (kG*kA*kA*dT*dT*dA*dA*d[5mC]*d[5mC]*dT*d[5mC]*dA*dG*kT*kG*kA; antisense) [Compound 1076230]
YAP1 (% UTC) [4]: 50 % UTC

1075344 (antisense kT*kA*kA*d[5mC]*dT*dA*dA*dA*dA*dG*dG*dG*dA*kG*kT*kA) [compound 1075344]
YAP1 (% UTC) [1]: 91 % UTC

1075081 (antisense kG*kA*kT*dT*dA*d[5mC]*dA*dA*dA*dG*dA*d[5mC]*dA*kG*k[5mC]*k[5mC]) [Compound 1075081]
YAP1 (% UTC) [5]: 7 % UTC

1074246 (antisense kA*kA*kG*dA*dA*dG*dT*dA*dT*d[5mC]*dT*d[5mC]*dT*kG*kA*k[5mC]) [Compound 1074246]
YAP1 (% UTC) [4]: 11 % UTC

716346 (kT*kT*kT*d[5mC]*d[5mC]*d[5mC]*dT*dG*dG*d[5mC]*dG*dG*d[5mC]*kG*kG*k[5mC]; antisense) [Compound 716346]
YAP1 (% UTC) [6]: 77 % UTC

1074640 (antisense kG*k[5mC]*k[5mC]*dA*dA*dA*dA*dT*dA*d[5mC]*dT*dT*dA*kG*kA*kT) [compound 1074640]
YAP1 (% UTC) [1]: 26 % UTC

1075495 (antisense k[5mC]*kT*kT*dA*dA*dT*dT*dG*dG*dT*dA*dA*d[5mC]*kT*kG*kA) [Compound 1075495]
YAP1 (% UTC) [7]: 19 % UTC

1074628 (antisense kG*k[5mC]*k[5mC]*dT*dG*dT*dT*dA*dT*dG*dA*dA*d[5mC]*k[5mC]*k[5mC]*kT) [Compound 1074628]
YAP1 (% UTC) [8]: 5 % UTC

1075859 (antisense kA*k[5mC]*kT*dT*dA*dT*d[5mC]*dA*d[5mC]*dT*d[5mC]*dT*dG*k[5mC]*k[5mC]*k[5mC]) [compound 1075859]
YAP1 (% UTC) [9]: 20 % UTC

1075044 (antisense kA*kA*kT*dT*dA*dG*dA*d[5mC]*dT*d[5mC]*d[5mC]*d[5mC]*d[5mC]*k[5mC]*kA*kA) [Compound 1075044]
YAP1 (% UTC) [8]: 58 % UTC

1076107 (k[5mC]*kA*kT*dT*dA*d[5mC]*d[5mC]*dA*dA*d[5mC]*dT*dT*d[5mC]*kT*kT*k[5mC]; antisense) [Compound 1076107]
YAP1 (% UTC) [10]: 23 % UTC

716569 (k[5mC]*kT*k[5mC]*d[5mC]*dT*dT*dA*dA*d[5mC]*d[5mC]*d[5mC]*dG*dG*kG*kT*kT; antisense) [Compound 716569]
YAP1 (% UTC) [3]: 115 % UTC

1076004 (kT*kA*kA*dT*dT*dT*dA*dA*dT*dG*dG*d[5mC]*dT*kT*kG*k[5mC]; antisense) [Compound 1076004]
YAP1 (% UTC) [8]: 2 % UTC

1075635 (antisense kA*kA*kT*dA*dA*dA*d[5mC]*dA*d[5mC]*d[5mC]*dT*d[5mC]*dG*k[5mC]*k[5mC]*kA) [compound 1075635]
YAP1 (% UTC) [9]: 97 % UTC

716403 (k[5mC]*k[5mC]*kG*dG*dG*dA*dG*dA*dA*dG*dA*d[5mC]*dA*k[5mC]*kT*kG; antisense) [Compound 716403]
YAP1 (% UTC) [6]: 110 % UTC

1075588 (kA*k[5mC]*kT*dT*dA*dT*dT*dA*dG*d[5mC]*dA*d[5mC]*d[5mC]*kT*kG*kG; antisense) [Compound 1075588]
YAP1 (% UTC) [8]: 27 % UTC

1074184 (antisense kG*k[5mC]*k[5mC]*dG*dG*dT*dT*dG*dA*dG*dG*d[5mC]*dG*kG*k[5mC]*kG) [Compound 1074184]
YAP1 (% UTC) [11]: 100 % UTC

1074151 (antisense kG*kG*kG*d[5mC]*d[5mC]*dG*dA*dG*dG*dT*dG*dG*dA*kG*kA*kA) [Compound 1074151]
YAP1 (% UTC) [7]: 81 % UTC

1074148 (antisense kG*kT*kG*dG*dA*dG*dA*dA*dG*d[5mC]*dG*dG*d[5mC]*kG*kA*k[5mC]) [Compound 1074148]
YAP1 (% UTC) [8]: 66 % UTC

1075524 (kT*kA*kA*dT*dT*dA*dA*dG*dG*dG*d[5mC]*d[5mC]*d[5mC]*kA*k[5mC]*kA; antisense) [Compound 1075524]
YAP1 (% UTC) [8]: 71 % UTC

1076073 (k[5mC]*kT*kT*dT*dA*dA*dG*dG*dT*d[5mC]*dT*dA*dG*kT*kT*kA; antisense) [Compound 1076073]
YAP1 (% UTC) [5]: 47 % UTC

1074283 (antisense kA*kA*kA*dA*d[5mC]*dG*dA*dG*dG*dG*dT*d[5mC]*dA*kA*kG*k[5mC]) [Compound 1074283]
YAP1 (% UTC) [10]: 12 % UTC

1074346 (antisense kA*kT*k[5mC]*dT*dG*dA*dG*d[5mC]*dT*dA*dT*dT*dG*kG*kT*k[5mC]) [Compound 1074346]
YAP1 (% UTC) [2]: 10 % UTC

1075812 (k[5mC]*kA*kT*dT*dA*dA*dG*dA*dT*dT*dT*dT*dA*kA*k[5mC]*k[5mC]; antisense) [Compound 1075812]
YAP1 (% UTC) [8]: 103 % UTC

1076019 (k[5mC]*kA*k[5mC]*dT*dA*dA*dT*dA*dG*dG*dA*dT*dG*kG*kA*kT; antisense) [compound 1076019]
YAP1 (% UTC) [9]: 12 % UTC

1076201 (k[5mC]*kT*kA*dA*dA*dA*dA*dG*dA*d[5mC]*dA*dG*dG*kG*k[5mC]*k[5mC]; antisense) [Compound 1076201]
YAP1 (% UTC) [5]: 99 % UTC

1074699 (antisense k[5mC]*kT*kA*dT*d[5mC]*dA*dA*dG*dG*dT*d[5mC]*d[5mC]*d[5mC]*k[5mC]*k[5mC]*kT) [Compound 1074699]
YAP1 (% UTC) [10]: 27 % UTC

1074160 (kG*k[5mC]*kG*dA*dG*d[5mC]*dG*dA*dG*dG*dG*d[5mC]*dT*kA*k[5mC]*kG; antisense) [compound 1074160]
YAP1 (% UTC) [1]: 86 % UTC

1074502 (kA*kA*k[5mC]*dT*dA*d[5mC]*dA*dA*dT*dA*dA*d[5mC]*d[5mC]*kA*kT*k[5mC]; antisense) [Compound 1074502]
YAP1 (% UTC) [4]: 31 % UTC

716547 (kG*kG*kT*dA*dT*dG*dA*dA*dT*dT*d[5mC]*dT*dG*kA*kA*kT; antisense) [Compound 716547]
YAP1 (% UTC) [6]: 44 % UTC

1074984 (antisense kA*kT*k[5mC]*dA*d[5mC]*d[5mC]*dT*dT*dT*dT*dA*dT*dT*kG*k[5mC]*k[5mC]) [Compound 1074984]
YAP1 (% UTC) [11]: 31 % UTC

1075376 (antisense k[5mC]*k[5mC]*kT*dA*dA*dA*dT*dA*dT*d[5mC]*dA*dA*d[5mC]*kT*k[5mC]*k[5mC]) [compound 1075376]
YAP1 (% UTC) [1]: 72 % UTC

1075492 (antisense kG*k[5mC]*kT*dA*dA*dA*dA*dT*dG*dA*dT*dA*d[5mC]*kT*kT*k[5mC]) [Compound 1075492]
YAP1 (% UTC) [8]: 29 % UTC

1075216 (kT*kA*kT*dT*dT*dT*dA*d[5mC]*dA*d[5mC]*dG*dA*dA*k[5mC]*kT*kA; antisense) [compound 1075216]
YAP1 (% UTC) [1]: 55 % UTC

716487 (kA*k[5mC]*kA*d[5mC]*dA*dT*dA*d[5mC]*dT*d[5mC]*dT*dA*dG*kT*kT*kA; antisense) [Compound 716487]
YAP1 (% UTC) [6]: 64 % UTC

1074116 (antisense kG*kA*kG*dA*dA*d[5mC]*dT*dT*dT*dT*dT*d[5mC]*d[5mC]*k[5mC]*kT*k[5mC]) [Compound 1074116]
YAP1 (% UTC) [8]: 112 % UTC
